Data on six cell lines can be found in the supplement of paper PMC10307832.

What all share (assay): relative viability (nuclei count vs DMSO), 5 days (fraction); higher = more cells survive
Compound in the experiment “Gemcitabine + Alpelisib”: Nc1ccn([C@@H]2O[C@H](CO)[C@@H](O)C2(F)F)c(=O)n1 [Gemcitabine] + Cc1nc(NC(=O)N2CCC[C@H]2C(N)=O)sc1-c1ccnc(C(C)(C)C(F)(F)F)c1 [Alpelisib] (partner 2 µM)
The method in brief:
(§1)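 Lung cancer cell lines were seeded in 1536-well plates and dosed by pin tool the next day, with either a single drug or a fixed anchor-drug dose combined with five library-drug doses (not always all listed) spaced in √10 steps. Five days later, one step fixed the cells and stained their nuclei (final 0.05% Triton X-100, 1% formaldehyde, 1 ug/ml Hoechst), and nuclei were counted on 4× images. Relative viability is the nuclei count in treated wells divided by the count in vehicle wells, and each value is the median of duplicate plates.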

Compound in the experiment “Gemcitabine + Pemetrexed”: Nc1ccn([C@@H]2O[C@H](CO)[C@@H](O)C2(F)F)c(=O)n1 [Gemcitabine] + Nc1nc2[nH]cc(CCc3ccc(C(=O)N[C@@H](CCC(=O)O)C(=O)O)cc3)c2c(=O)[nH]1 [Pemetrexed] (partner 0.2 µM)
An outline of the steps:
as §1

Compound in the experiment “Gemcitabine + Foretinib”: Nc1ccn([C@@H]2O[C@H](CO)[C@@H](O)C2(F)F)c(=O)n1 [Gemcitabine] + COc1cc2c(Oc3ccc(NC(=O)C4(C(=O)Nc5ccc(F)cc5)CC4)cc3F)ccnc2cc1OCCCN1CCOCC1 [Foretinib] (partner 0.25 µM)
An outline of the steps: as §1

Compound in the experiment “Gemcitabine + Olaparib”: Nc1ccn([C@@H]2O[C@H](CO)[C@@H](O)C2(F)F)c(=O)n1 [Gemcitabine] + O=C(c1cc(Cc2n[nH]c(=O)c3ccccc23)ccc1F)N1CCN(C(=O)C2CC2)CC1 [Olaparib] (partner 8 µM)
The method in brief:
as §1

Consider NCI-H2126, for which the relative viability with Gemcitabine + Alpelisib (first compound 0.001 µM) was found to be 0.749; in the experiment with Gemcitabine + Alpelisib (first compound 0.003162 µM), 0.705; in the experiment with Gemcitabine + Alpelisib (first compound 0.01 µM), 0.728; with Gemcitabine + Alpelisib (first compound 0.03162 µM), 0.504; with Gemcitabine + Alpelisib (first compound 0.1 µM), 0.255; with Gemcitabine + Pemetrexed (first compound 0.001 µM), 0.628. For the same cell line, the relative viability with Gemcitabine + Pemetrexed (first compound 0.003162 µM) is 0.742; in the experiment with Gemcitabine + Pemetrexed (first compound 0.01 µM) it was 0.628; with Gemcitabine + Pemetrexed (first compound 0.03162 µM), 0.577; with Gemcitabine + Pemetrexed (first compound 0.1 µM), 0.3; with Gemcitabine + Foretinib (first compound 0.001 µM), 1.15; with Gemcitabine + Foretinib (first compound 0.003162 µM), 1.17. Further, the relative viability with Gemcitabine + Foretinib (first compound 0.01 µM) was found to be 1.15; in the experiment with Gemcitabine + Foretinib (first compound 0.03162 µM), 0.674; in the experiment with Gemcitabine + Foretinib (first compound 0.1 µM), 0.324; with Gemcitabine + Olaparib (first compound 0.001 µM), 0.888; with Gemcitabine + Olaparib (first compound 0.003162 µM) it was 0.933; with Gemcitabine + Olaparib (first compound 0.01 µM), 0.867. Besides, the relative viability amounted to 0.562 with Gemcitabine + Olaparib (first compound 0.03162 µM) and 0.262 with Gemcitabine + Olaparib (first compound 0.1 µM).
With LXF-289, the relative viability in the experiment with Gemcitabine + Alpelisib (first compound 0.001 µM) amounted to 1.04; with Gemcitabine + Alpelisib (first compound 0.003162 µM) it was 1; in the experiment with Gemcitabine + Alpelisib (first compound 0.01 µM), 0.737; with Gemcitabine + Alpelisib (first compound 0.03162 µM), 0.123; in the experiment with Gemcitabine + Alpelisib (first compound 0.1 µM), 0.114; in the experiment with Gemcitabine + Pemetrexed (first compound 0.001 µM), 0.901. Moreover, the relative viability came out at 0.964 with Gemcitabine + Pemetrexed (first compound 0.003162 µM); 0.642 with Gemcitabine + Pemetrexed (first compound 0.01 µM); 0.102 with Gemcitabine + Pemetrexed (first compound 0.03162 µM); 0.0843 with Gemcitabine + Pemetrexed (first compound 0.1 µM); 0.974 in the experiment with Gemcitabine + Foretinib (first compound 0.001 µM); 0.966 with Gemcitabine + Foretinib (first compound 0.003162 µM). Besides, the relative viability with Gemcitabine + Foretinib (first compound 0.01 µM) amounted to 0.803; with Gemcitabine + Foretinib (first compound 0.03162 µM) it was 0.106; in the experiment with Gemcitabine + Foretinib (first compound 0.1 µM), 0.107; in the experiment with Gemcitabine + Olaparib (first compound 0.001 µM), 1.07; with Gemcitabine + Olaparib (first compound 0.003162 µM), 0.935; with Gemcitabine + Olaparib (first compound 0.01 µM), 0.303. Further, the relative viability worked out at 0.0848 in the experiment with Gemcitabine + Olaparib (first compound 0.03162 µM) and 0.0776 with Gemcitabine + Olaparib (first compound 0.1 µM).
Consider PC-14, for which the relative viability amounted to 1.02 in the experiment with Gemcitabine + Alpelisib (first compound 0.001 µM); 0.688 with Gemcitabine + Alpelisib (first compound 0.003162 µM); 0.468 with Gemcitabine + Alpelisib (first compound 0.01 µM); 0.0826 with Gemcitabine + Alpelisib (first compound 0.03162 µM); 0.0459 with Gemcitabine + Alpelisib (first compound 0.1 µM); 0.132 with Gemcitabine + Pemetrexed (first compound 0.001 µM). For the same cell line, the relative viability with Gemcitabine + Pemetrexed (first compound 0.003162 µM) is 0.168; in the experiment with Gemcitabine + Pemetrexed (first compound 0.01 µM), 0.0563; in the experiment with Gemcitabine + Pemetrexed (first compound 0.03162 µM), 0.0461; with Gemcitabine + Pemetrexed (first compound 0.1 µM) it was 0.0413; with Gemcitabine + Foretinib (first compound 0.001 µM) it was 0.953; in the experiment with Gemcitabine + Foretinib (first compound 0.003162 µM), 0.649. For the same cell line, the relative viability with Gemcitabine + Foretinib (first compound 0.01 µM) was found to be 0.293; in the experiment with Gemcitabine + Foretinib (first compound 0.03162 µM) it was 0.0827; in the experiment with Gemcitabine + Foretinib (first compound 0.1 µM) it was 0.0507; in the experiment with Gemcitabine + Olaparib (first compound 0.001 µM) it was 0.256; with Gemcitabine + Olaparib (first compound 0.003162 µM) it was 0.13; with Gemcitabine + Olaparib (first compound 0.01 µM) it was 0.0358. Further, the figures for the relative viability with Gemcitabine + Olaparib (first compound 0.03162 µM) and with Gemcitabine + Olaparib (first compound 0.1 µM) were 0.0472 and 0.0357, respectively.
In the case of HOP-62, the relative viability is 0.829 with Gemcitabine + Alpelisib (first compound 0.001 µM); 0.572 with Gemcitabine + Alpelisib (first compound 0.003162 µM); 0.0893 with Gemcitabine + Alpelisib (first compound 0.01 µM); 0.0529 in the experiment with Gemcitabine + Alpelisib (first compound 0.03162 µM); 0.061 with Gemcitabine + Alpelisib (first compound 0.1 µM); 0.323 with Gemcitabine + Pemetrexed (first compound 0.001 µM). For the same cell line, the relative viability in the experiment with Gemcitabine + Pemetrexed (first compound 0.003162 µM) was 0.299; with Gemcitabine + Pemetrexed (first compound 0.01 µM), 0.15; with Gemcitabine + Pemetrexed (first compound 0.03162 µM), 0.0689; in the experiment with Gemcitabine + Pemetrexed (first compound 0.1 µM), 0.0761; with Gemcitabine + Foretinib (first compound 0.001 µM), 1.01; in the experiment with Gemcitabine + Foretinib (first compound 0.003162 µM), 0.965. Also, the relative viability with Gemcitabine + Foretinib (first compound 0.01 µM) stood at 0.306; in the experiment with Gemcitabine + Foretinib (first compound 0.03162 µM), 0.103; with Gemcitabine + Foretinib (first compound 0.1 µM), 0.0927; in the experiment with Gemcitabine + Olaparib (first compound 0.001 µM) it was 0.516; with Gemcitabine + Olaparib (first compound 0.003162 µM), 0.387; in the experiment with Gemcitabine + Olaparib (first compound 0.01 µM) it was 0.0703. Besides, the relative viability with Gemcitabine + Olaparib (first compound 0.03162 µM) is 0.0534; with Gemcitabine + Olaparib (first compound 0.1 µM) it was 0.0449.
With NCI-H358, the relative viability with Gemcitabine + Alpelisib (first compound 0.001 µM) worked out at 0.64; with Gemcitabine + Alpelisib (first compound 0.003162 µM), 0.236; with Gemcitabine + Alpelisib (first compound 0.01 µM), 0.154; in the experiment with Gemcitabine + Alpelisib (first compound 0.03162 µM) it was 0.175; in the experiment with Gemcitabine + Alpelisib (first compound 0.1 µM), 0.151; in the experiment with Gemcitabine + Pemetrexed (first compound 0.001 µM), 0.145. The relative viability with Gemcitabine + Pemetrexed (first compound 0.003162 µM) was found to be 0.148; with Gemcitabine + Pemetrexed (first compound 0.01 µM) it was 0.146; in the experiment with Gemcitabine + Pemetrexed (first compound 0.03162 µM), 0.118; in the experiment with Gemcitabine + Pemetrexed (first compound 0.1 µM), 0.108; with Gemcitabine + Foretinib (first compound 0.001 µM), 0.729; with Gemcitabine + Foretinib (first compound 0.003162 µM), 0.168. The relative viability was 0.0883 with Gemcitabine + Foretinib (first compound 0.01 µM); 0.0934 in the experiment with Gemcitabine + Foretinib (first compound 0.03162 µM); 0.0705 in the experiment with Gemcitabine + Foretinib (first compound 0.1 µM); 0.689 with Gemcitabine + Olaparib (first compound 0.001 µM); 0.321 with Gemcitabine + Olaparib (first compound 0.003162 µM); 0.146 with Gemcitabine + Olaparib (first compound 0.01 µM). In addition, the relative viability worked out at 0.101 in the experiment with Gemcitabine + Olaparib (first compound 0.03162 µM) and 0.0993 with Gemcitabine + Olaparib (first compound 0.1 µM).
Turning to SK-MES-1, the relative viability with Gemcitabine + Alpelisib (first compound 0.001 µM) is 0.658; in the experiment with Gemcitabine + Alpelisib (first compound 0.003162 µM), 0.454; in the experiment with Gemcitabine + Alpelisib (first compound 0.01 µM), 0.21; with Gemcitabine + Alpelisib (first compound 0.03162 µM) it was 0.189; with Gemcitabine + Alpelisib (first compound 0.1 µM), 0.183; with Gemcitabine + Pemetrexed (first compound 0.001 µM), 0.804. The relative viability in the experiment with Gemcitabine + Pemetrexed (first compound 0.003162 µM) was 0.271; with Gemcitabine + Pemetrexed (first compound 0.01 µM), 0.2; in the experiment with Gemcitabine + Pemetrexed (first compound 0.03162 µM), 0.201; with Gemcitabine + Pemetrexed (first compound 0.1 µM), 0.173; with Gemcitabine + Foretinib (first compound 0.001 µM), 0.987; with Gemcitabine + Foretinib (first compound 0.003162 µM), 0.646. Besides, the relative viability was determined as 0.319 in the experiment with Gemcitabine + Foretinib (first compound 0.01 µM); 0.191 with Gemcitabine + Foretinib (first compound 0.03162 µM); 0.201 with Gemcitabine + Foretinib (first compound 0.1 µM); 0.587 with Gemcitabine + Olaparib (first compound 0.001 µM); 0.22 with Gemcitabine + Olaparib (first compound 0.003162 µM); 0.165 in the experiment with Gemcitabine + Olaparib (first compound 0.01 µM). The relative viability with Gemcitabine + Olaparib (first compound 0.03162 µM) amounted to 0.199; in the experiment with Gemcitabine + Olaparib (first compound 0.1 µM), 0.161.
